{"source": "paper PMC7824363", "about": "“The Cytotoxicity of RNase-Derived Peptides” (Biomolecules, 2020)", "key": {"[1]": {"test_system": "MCF-7 cells", "test": "MTT assay, MCF-7 cell viability", "format": "cell-based, human", "details": "125 µM, 48 h", "protocol": "(§1) The human alveolar adenocarcinoma cell line (A549), two breast cancer cell lines (MCF-7 and BT-20), and cervical cancer cell line (HeLa) were obtained from American Type Culture […] (Rockville, MD, USA). Cells were grown at 37 °C in humidified 5% CO2 atmosphere using RPMI 1640 medium for A549 cells and Dulbecco’s modified Eagle’s medium for MCF-7, BT-20, and HeLa cells supplemented with 10% fetal bovine serum (HyClone), 2 mM glutamine, and antibiotics (penicillin and streptomycin, 100 U/mL each).\n(§2) The viability of untreated control cells and cells treated with binase and binase-derived peptides at different concentrations (5, 50, and 125 μM) was determined according to the mitochondrial nicotinamide adenine dinucleotide phosphate NAD(P)H-dependent cellular oxidoreductases activity tested by the standard procedure based on the reduction of the tetrazolium dye MTT) to its insoluble product formazan, which has a purple color. Cells at the initial concentration of […] per well were grown in a 96-well plate (CELLTREAT Scientific Products, Shirley, MA, USA); then, the culture fluid was discarded and fresh medium with peptides was added. After 48 h, formazan absorption was measured at 570 nm (xMark, Bio-Rad, Hercules, CA, USA). The amount of formazan produced is proportional to the number of viable cells. The viability of untreated cells was taken as 100%."}, "[2]": {"test_system": "BT-20 cells", "test": "MTT assay with cetuximab pre-treatment (EGFR inhibition)", "format": "cell-based, human", "details": "10 μg/mL cetuximab for 48 h, then 50 μM peptide for 48 h", "protocol": "To examine the peptide effect on EGFR signaling, the EGFR-specific monoclonal antibody cetuximab (Merck, KGaA, Darmstadt, Germany) was added at the concentration of 10 μg/mL to cells grown for 24 h in 96-well plates. After 48 h of exposure to inhibitor, half the wells were treated with the B74–94 peptide at 50 μM concentration, and the cells were allowed to grow for another 48 h. Afterwards, cell proliferation was assessed by the MTT assay."}, "[3]": {"test_system": "BT-20 cells", "test": "Immunofluorescence confocal microscopy, entry into BT-20 cells", "format": "cell-based, human", "details": "50 µM, 30 min incubation, His-tagged peptides (anti-His Alexa Fluor 647) or tagless binase (anti-binase, FITC), confocal laser scanning microscopy", "protocol": "(§3) A549 cells (25,000 cells/well) and BT-20 cells (150,000 cells/well) were seeded on 4-well chamber slides and incubated for 24 h in 800 µL of 10% fetal bovine serum containing RPMI or DMEM, respectively. The medium was replaced with the fresh one, and the His-tagged B21–50 and B74–94 peptides or tagless binase were applied to each well at the final concentration of 50 µM. After 30 min of incubation, the medium was removed, and the cells were washed three times with ice-cold phosphate-buffered saline (PBS). Then, cells were fixed in a 4% paraformaldehyde solution for 15 min and permeabilized in 0.1% Triton-X100 solution in PBS for 10 min. Binase-treated cells were incubated overnight with anti-binase antibodies (1:500) at 4 °C [39]. Thereafter, the cells were washed three times in PBS containing 0.1% Tween for 10 min each and then were incubated with fluorescein isothiocyanate (FITC)-conjugated mouse anti-rabbit immunoglobulin G (IgG) (H+L) cross-adsorbed secondary antibody (Thermo Fisher Scientific, Inc., Waltham, MA, USA Cat.# 31584) at the concentration of 2 µg/mL in PBS containing 1% bovine serum albumin at room temperature for 45 min in the dark. Non-specific binding of the secondary antibodies was evaluated at the same experiment but without treatment with primary antibodies. […]"}, "[4]": {"test_system": "A549 cells", "test": "Immunofluorescence confocal microscopy, entry into A549 cells", "format": "cell-based, human", "details": "50 µM, 30 min incubation, His-tagged peptides (anti-His Alexa Fluor 647) or tagless binase (anti-binase, FITC), confocal laser scanning microscopy", "protocol": "as §3"}, "[5]": {"test_system": "HeLa cells", "test": "MTT assay, HeLa cell viability", "format": "cell-based, human", "details": "48 h, versus untreated cells = 100%, triplicate", "protocol": "as §1, §2"}, "[6]": {"test_system": "BT-20 cells", "test": "MTT assay, BT-20 cell viability", "format": "cell-based, human", "details": "48 h", "protocol": "as §1, §2"}, "[7]": {"target": "epidermal growth factor receptor (human (endogenous in BT-20)) (UniProt P00533)"}, "[8]": {"details": "concentration not specified (5-125 µM tested)"}}}
{"substance": "B74–94: chemically synthesized peptide corresponding to binase region 74–94 (DINYVSGFRNADRLVYSSDWL; UniProt P00649 127-147, looked up, fragment)", "values": [{"measurement": "inhibition of cell proliferation (fold)", "setting": "[1]", "value": "two-fold"}, {"measurement": "decrease of cytotoxicity after preliminary cell treatment with cetuximab", "setting": "[2]", "value": 28, "unit": "%"}, {"measurement": "detection inside BT-20 cells", "setting": "[3]", "value": "detected inside BT-20 cells"}, {"measurement": "detection inside A549 cells", "setting": "[4]", "value": "not been visualized"}]}
{"substance": "B21–50: chemically synthesized peptide corresponding to binase region 21–50 (DNYITKSQASALGWVASKGNLAEVAPGKSI; UniProt P00649 74-103, looked up, fragment)", "values": [{"measurement": "decrease of cell viability", "setting": "[5]; 50 µM", "value": 45, "unit": "%"}, {"measurement": "decrease of cell viability", "setting": "[5]; 125 µM (highest concentration)", "value": 93, "unit": "%"}, {"measurement": "decrease of cell viability", "setting": "[6]; 5 µM, versus non-treated cells, triplicate", "value": 28, "unit": "%"}, {"measurement": "decrease of cell viability", "setting": "[6]; 50 µM, versus non-treated cells, triplicate", "value": 23, "unit": "%"}, {"measurement": "decrease of cell viability", "setting": "[6]; 125 µM, versus non-treated cells, triplicate", "value": 68, "unit": "%"}, {"measurement": "detection inside BT-20 cells", "setting": "[3]", "value": "detected inside BT-20 cells"}, {"measurement": "detection inside A549 cells", "setting": "[4]", "value": "not been visualized"}]}
{"substance": "binase-derived peptide B74–94", "values": [{"measurement": "cytotoxicity of B74–94 (50 μM, 48 h) toward BT-20 cells by MTT assay after 48 h of pre-treatment with 10 μg/mL cetuximab (EGFR-specific antibody)", "setting": "[7]", "value": 28, "unit": "%"}]}
{"substance": "B1–20: chemically synthesized peptide corresponding to binase region 1–20 (AVINTFDGVADYLIRYKRLP; UniProt P00649 54-73, looked up, fragment)", "values": [{"measurement": "decrease of cell viability", "setting": "[6]; [8]", "value": "15–25%"}]}
{"substance": "B95–109: chemically synthesized peptide corresponding to binase region 95–109 (IYKTTDHYATFTRIR; UniProt P00649 148-162, looked up, fragment)", "values": [{"measurement": "decrease of cell viability", "setting": "[6]; [8]", "value": "15–25%"}]}
